# According to patent US20230357179A1, “RAF KINASE INHIBITORS AND METHODS OF USE THEREOF” (Deciphera Pharmaceuticals, LLC, priority 2021, published 2023):
# Experiments:
# B-Raf (V600E) kinase = target: T1, B-Raf (V600E) kinase (Homo sapiens, UniProt P15056, V600E); test: Biochemical assay for B-Raf (V600E).1 (coupled pyruvate kinase/lactate dehydrogenase); details: read-out: BRAF V600E.1 IC50
# T1 construct: B-Raf (V600E) residues 416-766 with a; GST (N); purchased SignalChem
# Procedure: Biochemical Assay for B-Raf (V600E).1
# Activity of B-Raf (V600E) (SEQ. ID NO: 4) kinase was determined spectroscopically using a coupled pyruvate kinase/lactate dehydrogenase assay that continuously monitors the ATP hydrolysis-dependent oxidation of NADH (e.g., Schindler et al., Science, 2000, 289, 1938-1942). Assays were conducted in 384-well plates (100 μL final volume) using 0.03 nM B-Raf (SignalChem), 1.5 units pyruvate kinase, 2.1 units lactate dehydrogenase, 1 mM phosphoenol pyruvate, 0.28 mM NADH, 30.1 nM MEK (SignalChem), and 1 mM ATP in assay buffer (100 mM Tris, pH 7.5, 15 mM MgCl2, 0.5 mM DTT, 0.1% octyl-glucoside, 0.002% (w/v) BSA, and 0.002% Triton X-100). Inhibition of B-Raf (V600E) was measured by adding serial diluted test compound (final assay concentration of 1% DMSO). A decrease in absorption at 340 nm was monitored continuously for 6 h at 30° C. on a multi-mode microplate reader (BioTek). The reaction rate was calculated using the 3 to 4 h time frame. The reaction rate at each concentration of compound was converted to percent inhibition using controls (i.e., reaction with no test compound and reaction with a known inhibitor) and IC50 values were calculated by fitting a four-parameter sigmoidal curve to the data using Prism (GraphPad software).
# C-Raf kinase = target: T2, C-Raf kinase (Homo sapiens, UniProt P04049, Y340D/Y341D); test: Biochemical assay for C-Raf.1 (coupled pyruvate kinase/lactate dehydrogenase); details: read-out: CRAF.1 IC50
# T2 construct: Y340D,; GST (N); purchased Sigma
# T2 sequence (P04049 307-648 Y340D/Y341D): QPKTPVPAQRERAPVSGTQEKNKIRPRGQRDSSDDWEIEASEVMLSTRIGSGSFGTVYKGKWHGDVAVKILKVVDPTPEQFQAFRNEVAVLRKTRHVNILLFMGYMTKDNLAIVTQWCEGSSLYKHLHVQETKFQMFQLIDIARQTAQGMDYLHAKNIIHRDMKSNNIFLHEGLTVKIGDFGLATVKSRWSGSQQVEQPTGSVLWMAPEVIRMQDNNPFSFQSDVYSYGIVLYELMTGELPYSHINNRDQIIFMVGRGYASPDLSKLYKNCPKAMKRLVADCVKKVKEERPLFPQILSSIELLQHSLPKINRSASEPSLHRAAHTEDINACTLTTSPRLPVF
# Procedure: Biochemical Assay for C-Raf.1
# (§1) Activity of C-Raf kinase (SEQ. ID NO: 3) was determined spectroscopically using a coupled pyruvate kinase/lactate dehydrogenase assay that continuously monitors the ATP hydrolysis-dependent oxidation of NADH (e.g., Schindler et al., Science, 2000, 289, 1938-1942). Assays were conducted in 384-well plates (100 μL final volume) using 0.43 nM C-Raf (Sigma), 1.5 units pyruvate kinase, 2.1 units lactate dehydrogenase, 1 mM phosphoenol pyruvate, 0.28 mM NADH, 30.1 nM MEK (SignalChem), and 1 mM ATP in assay buffer (100 mM Tris, pH 7.5, 15 mM MgCl2, 0.5 mM DTT, 0.1% octyl-glucoside, 0.002% (w/v) BSA, and 0.002% Triton X-100). Inhibition of C-Raf was measured by adding serial diluted test compound (final assay concentration of 1% DMSO). A decrease in absorption at 340 nm was monitored continuously for 6 h at 30° C. on a multi-mode microplate reader (BioTek). The reaction rate was calculated using the 4 to 5 h time frame. The reaction rate at each concentration of compound was converted to percent inhibition using controls (i.e., reaction with no test compound and reaction with a known inhibitor) and IC50 values were calculated by fitting a four-parameter sigmoidal curve to the data using Prism (GraphPad software).
# A375 cells = test: A375 cell proliferation assay (1), resazurin, 96-well; assay type: cell-based; details: Homo sapiens, A-375, inhibition of cell proliferation
# Procedure: A375 Cell Proliferation Assay (1)
# A375 cells (catalog (#CRL-1619) are obtained from the American Type Culture Collect (ATTC, Manassas, VA). Briefly, cells were grown in DMEM High Glucose supplemented with 10% characterized fetal bovine serum (Invitrogen, Carlsbad, CA) and 1% Penicillin/Streptomycin/L-Glutamine at 37° C., 5% CO2, and 95% humidity. Cells are expanded until reaching 70-95% confluency at which point they are sub-cultured or harvested for assay use. A serial dilution of test compound is dispensed into a 96-well black clear bottom plate in triplicate. Two thousand five hundred cells are added per well in 200 μL complete growth medium in the 96-well plate. Plates are incubated for 67-72 hours at 37° C., 5% CO2, and 95% humidity. At the end of the incubation, 40 μL of a 440 μM solution of resazurin (Sigma, St. Louis, MO) in PBS is added to each well of the plate and plates are incubated for an additional 5-6 hours at 37° C., 5% CO2, and 95% humidity. Plates are read on a Synergy2 or equivalent reader (Biotek, Winooski VT) using an excitation of 540 nm and an emission of 600 nm. Data is analyzed using Prism software (GraphPad, San Diego, CA) to calculate IC50 values.
# B-Raf kinase = target: T3, B-Raf kinase (Homo sapiens, UniProt P15056); test: Biochemical assay for B-Raf.1 (coupled pyruvate kinase/lactate dehydrogenase); details: read-out: BRAF.1 IC50
# T3 construct: GST (N); purchased Sigma
# T3 sequence (P15056 416-766): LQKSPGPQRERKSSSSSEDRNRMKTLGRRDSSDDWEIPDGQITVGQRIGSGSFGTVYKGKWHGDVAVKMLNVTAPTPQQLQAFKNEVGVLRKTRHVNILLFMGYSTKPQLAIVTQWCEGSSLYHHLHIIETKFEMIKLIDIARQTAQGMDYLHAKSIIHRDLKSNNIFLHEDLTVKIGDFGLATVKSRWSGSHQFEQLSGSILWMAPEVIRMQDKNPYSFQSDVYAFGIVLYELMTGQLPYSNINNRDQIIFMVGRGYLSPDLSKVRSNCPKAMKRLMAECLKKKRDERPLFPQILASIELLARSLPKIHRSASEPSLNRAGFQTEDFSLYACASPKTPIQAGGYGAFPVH
# Procedure: Biochemical Assay for B-Raf.1
# as §1, with “B-Raf” for “C-Raf”, “2)” for “3)”, “0.13” for “0.43”
# A-Raf kinase = target: T4, A-Raf kinase (Homo sapiens, UniProt P10398, Y301D/Y302D); test: Biochemical assay for A-Raf.1 (coupled pyruvate kinase/lactate dehydrogenase); details: read-out: ARAF.1 IC50
# T4 construct: purchased Sigma
# T4 sequence (P10398 with tags, fused parts or gaps Y301D/Y302D): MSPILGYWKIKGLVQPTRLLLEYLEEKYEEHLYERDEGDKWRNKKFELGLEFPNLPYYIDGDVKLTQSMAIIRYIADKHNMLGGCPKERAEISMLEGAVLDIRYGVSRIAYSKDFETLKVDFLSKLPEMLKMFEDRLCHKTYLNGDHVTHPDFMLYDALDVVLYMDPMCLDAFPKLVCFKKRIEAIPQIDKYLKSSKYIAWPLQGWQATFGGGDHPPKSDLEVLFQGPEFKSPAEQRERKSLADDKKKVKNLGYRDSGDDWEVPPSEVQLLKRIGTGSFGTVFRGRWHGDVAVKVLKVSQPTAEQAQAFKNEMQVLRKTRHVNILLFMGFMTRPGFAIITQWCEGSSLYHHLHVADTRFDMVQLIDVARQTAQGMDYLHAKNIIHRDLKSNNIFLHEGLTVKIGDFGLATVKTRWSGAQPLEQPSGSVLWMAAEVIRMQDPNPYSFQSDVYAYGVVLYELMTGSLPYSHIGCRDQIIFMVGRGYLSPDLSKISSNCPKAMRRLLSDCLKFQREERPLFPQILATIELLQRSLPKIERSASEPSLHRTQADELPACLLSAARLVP
# Procedure: Biochemical assay for A-Raf.1
# as §1, with “A-Raf” for “C-Raf”, “NO. 1)” for “NO: 3)”, “5.55” for “0.43”
# T1 sequence (P15056 416-766 V600E): as the sequence (P15056 416-766) above, with V185E counted along it
Compound,IC50 (B-Raf (V600E) kinase) [nM],IC50 (C-Raf kinase) [nM],IC50 (A375 cells) [nM],IC50 (B-Raf kinase) [nM],IC50 (A-Raf kinase) [nM]
"Cc1ccc(NC(=O)NCCC(C)(C)C)cc1-c1cc(N2CCOCC2)nc(N2CC(C)(O)C2)n1 [Example 1, 1-(3,3-dimethylbutyl)-3-(3-(2-(3-hydroxy-3-methylazetidin-1-yl)-6-morpholinopyrimidin-4-yl)-4-methylphenyl)urea]",≤ 100,≤ 100,≤ 100,≤ 100,> 1000
"CC(=O)Nc1cc(-c2cc(-c3cc(NC(=O)NCCC4(C)CC4)c(F)cc3C)ccn2)ccn1 [Example 2, N-(4-(4-fluoro-2-methyl-5-(3-(2-(1-methylcyclopropyl)ethyl)ureido)phenyl)-[2,4′-bipyridin]-2′-yl)acetamide]",≤ 100,100 to 500,1000 to 10000,500 to 1000,> 1000
Cc1ncc(NC(=O)NCCC(C)(C)C)cc1-c1cc(N2CCOCC2)c(=O)n(C)c1 [Example 8],≤ 100,500 to 1000,–,> 1000,> 1000
Cc1cc(F)c(NC(=O)NCCC2(C(F)(F)F)CC2)cc1-c1cc(C2CCOCC2)nc(N2CCN(C)CC2)c1 [Example 12],≤ 100,100 to 500,–,500 to 1000,> 1000
Cc1ccc(NC(=O)NC23CC4CC(CC(C4)C2)C3)cc1-c1cc(OCCO)nc(N2CCOCC2)c1 [Example 14],≤ 100,100 to 500,–,> 1000,> 1000
Cc1ncc(NC(=O)NCCC(C)(C)C)cc1-c1ccnc(N2CCOCC2)c1 [Example 16],≤ 100,100 to 500,–,500 to 1000,> 1000
Cc1ncc(NC(=O)NCCC(C)(C)C)cc1-c1cc(N2CCOCC2)c(=O)n(C)n1 [Example 17],≤ 100,> 1000,–,> 1000,> 1000
COC1(CCNC(=O)Nc2cc(-c3cc(-c4cnn(C)c4)nc(N4CCOCC4)c3)c(C)cc2F)CC1 [Example 35],≤ 100,100 to 500,–,100 to 500,> 1000
COC(C)(C)CCNC(=O)Nc1ccc(C)c(-c2cc(-c3cnn(C4CCNCC4)c3)nc(N3CCOCC3)c2)c1 [Example 46],≤ 100,100 to 500,–,100 to 500,> 1000
CC(=O)Nc1cc(-c2cc(-c3cc(NC(=O)NCCCC(F)(F)F)c(F)cc3C)cc(C3CC3)n2)ccn1 [Example 58],≤ 100,≤ 100,–,≤ 100,500 to 1000
COC(C)(C)CCNC(=O)Nc1cc(-c2cccc(-c3ccnc(N)c3)c2)c(C)cc1F [Example 70],≤ 100,100 to 500,–,100 to 500,> 1000
Cc1ncc(NC(=O)N2CCOCC2)cc1-c1cccc(-c2cc(NC(=O)C3CC3)ncn2)c1 [Example 74],100 to 500,> 1000,–,> 1000,> 1000
Cc1cc(F)c(NC(=O)N[C@H]2C[C@H](N(C)C)C2)cc1-c1cc(OCCO)nc(-c2ccnc3[nH]ncc23)c1 [Example 86],100 to 500,> 1000,–,> 1000,> 1000
CNC(=O)c1cc(-c2cnnc(-c3cc(NC(=O)N4CC[C@H](OC)C4)cnc3C)c2)ccn1 [Example 189],> 1000,> 1000,–,> 1000,> 1000
COC(=O)Nc1cc(-c2cnnc(-c3cccc(NC(=O)N4CC[C@H](OC)C4)c3)c2)ccn1 [Example 190],> 1000,> 1000,–,> 1000,> 1000
COC(=O)Nc1cc(-c2cnnc(-c3cc(NC(=O)N4CCC(C)(C)C4)cnc3C)c2)ccn1 [Example 191],> 1000,> 1000,–,> 1000,> 1000
CNC(=O)c1cc(-c2cnnc(-c3cc(NC(=O)N4CCC(CC(F)(F)F)C4)cnc3C)c2)ccn1 (stereo not drawn) [Example 192],> 1000,500 to 1000,–,> 1000,> 1000
COC(=O)Nc1cc(-c2cc(-c3cc(NC(=O)N4CCC(C)(C)C4)cnc3C)ccn2)ccn1 [Example 198],> 1000,100 to 500,–,500 to 1000,> 1000
COC(=O)Nc1cc(-c2cnnc(-c3cccc(NC(=O)N4CC[C@@H](OC)C4)c3)c2)ccn1 [Example 199],> 1000,> 1000,–,> 1000,> 1000
COC(=O)Nc1cc(-c2cnnc(-c3cc(NC(=O)N4CC[C@@H](OC)C4)cnc3C)c2)ccn1 [Example 203],> 1000,> 1000,–,> 1000,> 1000
CNC(=O)c1cc(-c2cnnc(-c3cc(NC(=O)N4CC[C@@H](OC)C4)cnc3C)c2)ccn1 [Example 204],> 1000,> 1000,–,> 1000,> 1000
COC(=O)Nc1cc(-c2cc(-c3cc(NC(=O)N4CCC(C(C)(C)O)C4)cnc3C)ccn2)ccn1 (stereo not drawn) [Example 212],> 1000,500 to 1000,–,> 1000,> 1000
